Data set [1] deals with tomato late blight pathogen (Phylophihora infeslans). Briefly: whole plant or invertebrate. Format: in vivo. Conditions: Phytophthora infestans, 96 h, read-out: Control value.
Data set [2] concerns grape downy mildew pathogen (Plasmopara viticola). The data set can be described thus: Grape downy mildew control test (Test Example 2). Format: in vivo. Conditions: Plasmopara viticola, foliar, 168 h; 100 ppm by mass, sprayed on grape leaf disc (variety Chardonnay) before inoculation; blotch area ratio seven days after inoculation, 20° C. The protocol:
5 parts by mass of the compound according to the present invention, 93.5 parts by mass of dimethylformamide, and 1.5 parts by mass of polyoxyethylene alkylaryl ether were mixed and dissolved to prepare an emulsion (I) containing 5% by mass of an active ingredient.
The control value was calculated according to the following formula.
Control value (%)=100−{blotch area ratio in treated area/blotch area ratio in untreated area}×100
Water was added to the emulsion (I) such that the concentration of the heterocyclic compound became 100 ppm by mass, and then the heterocyclic compound was dissolved therein to obtain a pharmaceutical solution. Then, the pharmaceutical solution was sprayed on a leaf disc of grape (variety “Chardonnay”) placed on agar in a 6-well plate. After air-drying, the leaf disc on which the pharmaceutical solution was sprayed was inoculated with zoosporangia of grape downy mildew pathogen (Plasmopara viticola) in a suspension by spraying the suspension thereon (treated area). As a control, a leaf disc on which no pharmaceutical solution was sprayed was inoculated in the same way as mentioned above (untreated area). The resultant leaf discs were left in a moist chamber at 20° C. Seven days after inoculation, the grape leaf discs were visually observed to measure the blotch area ratio to calculate the control value.

Bounds are passed on as bounds.

As usually defined, the melting point is the temperature of the solid-liquid transition. `CO/N=C/c1cc(C(Oc2ccc3ncsc3c2)c2nnco2)ncc1C#N` (stereo not drawn) [b-40]: the melting point is 129 to 131 °C. The pest or weed control at 125 ppm in data set [1] was at least 75%. For the same molecule, the pest or weed control at 100 ppm in data set [2] is at least 75%.
Consider `CO/N=C/c1cc(C(Oc2ccc3nc(C4CC4)sc3c2)c2nnco2)ncc1F` (stereo not drawn) [b-76], for which the melting point is 103 to 104 °C. Further, in data set [1], the pest or weed control at 125 ppm is at least 75%. For the same molecule, the pest or weed control at 100 ppm in data set [2] was at least 75%.
Regarding `CO/N=C/c1cc(C(Oc2cc(F)c3ncsc3c2)c2nnco2)ncc1F` (stereo not drawn) [b-45], the melting point was 137 to 139 °C. Moreover, the pest or weed control at 125 ppm in data set [1] is at least 75%. For the same molecule, the pest or weed control at 100 ppm in data set [2] is at least 75%.
Consider `CO/N=C/c1cc(C(Oc2cc(C)c3nc(C)sc3c2)c2nnco2)ncc1F` (stereo not drawn) [b-47], for which the melting point fell in the range of 151 to 154 °C. Also, in data set [1], the pest or weed control at 125 ppm is at least 75%. Further, the pest or weed control at 100 ppm in data set [2] is at least 75%.
Consider `C=Cc1cc(OC(c2cc(/C=N/OC)c(F)cn2)c2nnco2)cc2sc(C)nc12` (stereo not drawn) [b-48], for which the melting point was 116 to 119 °C. Also, the pest or weed control at 125 ppm in data set [1] is at least 75%. Also, the pest or weed control at 100 ppm in data set [2] is at least 75%.
`Fc1ccc(C(Oc2ccc3nnsc3c2)c2nnco2)nc1` (stereo not drawn) [b-10]: the melting point lay in the range of 141 to 142 °C. Moreover, the pest or weed control at 125 ppm in data set [1] was at least 75%. Also, the pest or weed control at 100 ppm in data set [2] is at least 75%.
As to `CO/N=C/c1ccnc(C(Oc2cc(F)c3ncsc3c2)c2nnco2)c1` (stereo not drawn) [b-22], the melting point was in the range of 113 to 148 °C. In data set [1], the pest or weed control at 125 ppm was at least 75%. Besides, the pest or weed control at 100 ppm in data set [2] was at least 75%.
On to `Clc1ccc(C(Oc2ccc3nnsc3c2)c2nnco2)nc1` (stereo not drawn) [b-12], for which the melting point was 133 to 134 °C. Also, the pest or weed control at 125 ppm in data set [1] was at least 75%. Also, the pest or weed control at 100 ppm in data set [2] was at least 75%.
On to `CO/N=C/c1cc(C(Oc2ccc3nnsc3c2)c2nnco2)ncc1F` (stereo not drawn) [b-58], for which the melting point lay in the range of 134 to 135 °C. Besides, the pest or weed control at 125 ppm in data set [1] is at least 75%. Moreover, the pest or weed control at 100 ppm in data set [2] is at least 75%.
`CO/N=C/c1cc(C(Oc2cc(Cl)c3ncsc3c2)c2nnco2)ncc1F` (stereo not drawn) [b-55]: the melting point was 153 to 154 °C. Besides, the pest or weed control at 125 ppm in data set [1] is at least 75%. For the same molecule, in data set [2], the pest or weed control at 100 ppm is at least 75%.
For the molecule `C#CCO/N=C/c1ccnc(C(Oc2ccc3nc(C)sc3c2)c2nnco2)c1` (stereo not drawn) [b-26], the melting point was 118 to 121 °C. The pest or weed control at 125 ppm in data set [1] was at least 75%. Further, the pest or weed control at 100 ppm in data set [2] is at least 75%.
`CO/N=C/c1cc(C(Oc2cc(OC)c3ncsc3c2)c2nnco2)ncc1F` (stereo not drawn) [b-84]: the melting point fell in the range of 103 to 104 °C. Also, the pest or weed control at 125 ppm in data set [1] was at least 75%. For the same molecule, the pest or weed control at 100 ppm in data set [2] was at least 75%.
On to `Fc1cnc(C(Oc2ccc3ncsc3c2)c2nnco2)cc1/C=N/OCC1CC1` (stereo not drawn) [b-50], for which the melting point fell in the range of 129 to 131 °C. For the same molecule, in data set [1], the pest or weed control at 125 ppm is at least 75%. Further, the pest or weed control at 100 ppm in data set [2] is at least 75%.
In the case of `CCc1cc(OC(c2cc(/C=N/OC)c(F)cn2)c2nnco2)cc2sc(C)nc12` (stereo not drawn) [b-46], the melting point is 145 to 147 °C. For the same molecule, the pest or weed control at 125 ppm in data set [1] is at least 75%. Also, the pest or weed control at 100 ppm in data set [2] is at least 75%.
In the case of `CO/N=C/c1cc(C(Oc2ccc3ncsc3c2)c2nnco2)ncc1F` (stereo not drawn) [b-15], the melting point lay within 136 to 138 °C. In addition, the pest or weed control at 125 ppm in data set [1] was at least 75%. Besides, in data set [2], the pest or weed control at 100 ppm is at least 75%.
`C=Cc1nc2ccc(OC(c3cc(/C=N/OC)c(F)cn3)c3nnco3)cc2s1` (stereo not drawn) [b-63] gave a melting point of 88 to 89 °C. In data set [1], the pest or weed control at 125 ppm was at least 75%. Further, in data set [2], the pest or weed control at 100 ppm was at least 75%.
`CNc1nc2ccc(OC(c3cc(/C=N/OC)c(F)cn3)c3nnco3)cc2s1` (stereo not drawn) [b-74] yielded a melting point of 181 to 182 °C. Moreover, the pest or weed control at 125 ppm in data set [1] was at least 75%. In addition, the pest or weed control at 100 ppm in data set [2] is at least 75%.
`CO/N=C/c1ccnc(C(Oc2cc(C)c3ncsc3c2)c2nnco2)c1` (stereo not drawn) [b-23] returned a melting point of 146 to 148 °C. Also, the pest or weed control at 125 ppm in data set [1] is at least 75%. The pest or weed control at 100 ppm in data set [2] was at least 75%.
As for `CO/N=C/c1cc(C(Oc2cc(Br)c3nc(C)sc3c2)c2nnco2)ncc1F` (stereo not drawn) [b-42], the melting point fell in the range of 70 to 75 °C. The pest or weed control at 125 ppm in data set [1] was at least 75%. For the same molecule, the pest or weed control at 100 ppm in data set [2] is at least 75%.
For the molecule `CCc1cc(OC(c2cc(/C=N/OC)c(F)cn2)c2nnco2)cc2scnc12` (stereo not drawn) [b-44], the melting point fell in the range of 114 to 117 °C. The pest or weed control at 125 ppm in data set [1] was at least 75%. The pest or weed control at 100 ppm in data set [2] was at least 75%.
In turn, `CO/N=C/c1cc(C(Oc2ccc3nc(CF)sc3c2)c2nnco2)ncc1F` (stereo not drawn) [b-66] displayed a melting point of 133 to 134 °C. The pest or weed control at 125 ppm in data set [1] is at least 75%. For the same molecule, in data set [2], the pest or weed control at 100 ppm is at least 75%.
Consider `CO/N=C/c1cc(C(Oc2cc3scnc3cc2F)c2nnco2)ncc1F` (stereo not drawn) [b-57], for which the melting point lay in the range of 150 to 151 °C. For the same molecule, the pest or weed control at 125 ppm in data set [1] is at least 75%. Besides, the pest or weed control at 100 ppm in data set [2] was at least 75%.
Consider `CCCc1cc(OC(c2cc(/C=N/OC)ccn2)c2nnco2)cc2scnc12` (stereo not drawn) [b-24], for which the melting point lay within 80 to 82 °C. For the same molecule, the pest or weed control at 125 ppm in data set [1] is at least 75%. The pest or weed control at 100 ppm in data set [2] is at least 75%.

Source of the values: patent publication US20220142165A1 (priority 2019, published 2022).
